{
  "source": "patent US20230406839A1",
  "about": "“Bifunctional Compounds And Methods Of Using The Same” (The General Hospital Corporation, priority 2020, published 2023)",
  "key": {"HeLa cells [1]": {"tested_on": "HeLa cells", "assay": "Azide metabolic labeling of HeLa cells, detected with DBCO-FAM by flow cytometry", "assay_type": "cell-based", "conditions": "AzNAM 125 μM for 20 hours, versus cells receiving no azide-modified sugar (FIG. 2)", "description": "In separate trials, HeLa cells were added to wells of a 12-well plate at 10,000 cells/well, and cultured for 72 hours under normal conditions. The wells were then washed with 1 ml of PBS, and 0.5 ml of DMEM-10% FBS was added. AzNAM was then added to a final concentration of 125 μM, with cells receiving no azide-modified sugar as controls. After 20 hours, cells were harvested with CellStripper (250 μl/well), washed with PBS, and subjected to flow analysis."}, "HeLa cells [2]": {"tested_on": "HeLa cells", "assay": "Azide metabolic labeling of HeLa cells, detected with DBCO-FAM in a fluorescent plate reader", "assay_type": "cell-based", "conditions": "AzNAM 25-125 μM for 20 hours, then DBCO-FAM 10 μM for 1 hour, 96-well plate reader (FIG. 1)", "description": "Initially, cells are cultured in a suitable culture vessel such that their level of confluency at the time of addition of the azide-modified sugar AzNAM is not more than 80%.\nIn particular, HeLa cells were plated in 6-well plates (2.5×10^4 cells/well) and incubated for 48 hours in DMEM-10% FBS medium in a standard 5% CO2 atmosphere. Medium from each well was removed, and each well was washed with 2 ml of phosphate buffered saline (PBS), and fresh DMEM-FBS (1 ml) added. Subsequently, varying amounts of AzNAM (solubilized in DMSO) were added to the wells in small (10 μl) volumes to produce the desired final concentrations in the range 25-125 μM. After an additional 20 hours incubation, the medium in each well was removed, and the wells were washed with 2 ml of PBS, followed by addition of 1 ml of PBS. Then, a fluorescent bio-orthogonally azide-reactive reagent DBCO-FAM (Broadpharm) was directly added to each well to produce a final concentration of 10 μM.\nPlates with added DBCO-FAM were protected from bright light and incubated for 1 hour at room temperature. Supernatants in each well were then removed, and each well was washed twice with 2 ml of PBS. […] After pelleting and washing in PBS, cells were resuspended in 150 μl of PBS and counted. Defined numbers in 50 μl volumes in a 96-well Blackwell plate (Corning) were assayed for fluorescence in a fluorescent plate reader (Tecan)."}},
  "data": [
    {"substance": "azido-N-acetylmannosamine [AzNAM]", "values": [
      {"measurement": "flow cytometry peak shift after reaction with DBCO-FAM", "setting": "HeLa cells [1]", "value": "marked and well-demarcated peak shifts were observed"},
      {"measurement": "cell-associated fluorescence after reaction with DBCO-FAM", "setting": "HeLa cells [2]", "value": "cell-associated fluorescence increased as a function of the levels of AzNAM"}
    ]}
  ]
}
